Our source for the concentration and MIC values is patent publication US4921953A, “Cephalosporin derivatives” (Taisho Pharmaceutical Co., Ltd., priority 1988, dated 1990).

≈ marks a conversion by molar mass, not a printed value. Counter-ions that a name gives are not always drawn. Like-named read-outs stand apart in the source and are kept apart here.

A short description of one data set: in vivo. Set-up: species or system male Japanese native strain white rabbits. Conditions: blood, rabbit, oral, 20 mg/kg suspended in 5% gum arabic, bioassay (Bacillus luteus S1101). On the procedure:
Three male Japanese native strain white rabbits weighing 2.50 to 3.15 kg for each group were administered orally with the test compounds, and the change of the concentration of the compound in blood was measured.
Dosage of the test compound: 20 mg/kg (suspended in 5% gum arabic).
Quantitative method: Bioassy method (test bacterium: Bacillus luteus S1101).

In data set [1] the test system is Eschelichia coli NIHJ JC-2. Description: antibacterial activity, agar plate dilution method (MIC). The data set is classed as cell-based. To be noted: read-out: Minimum Inhibitory Concentration (MIC). On the procedure:
(§1) The antibacterial activity against various bacteria was measured by the agar plate dilution method (inoculum size: 10^6 cells/ml), and the results are shown in the following Table 1.

Data set [2] relates to Staphylococcus epidermidis sp-al-1. Described as above. In kind it is cell-based. As for the experimental part: as §1
Data set [3] concerns Staphylococcus aureus K-1. Described as above. The data set is classed as cell-based. On the procedure:
as §1

The subject of data set [4] is Staphylococcus aureus 209P-JC. The data set is described as above. The data set is classed as cell-based. Conditions: read-out: Minimum Inhibitory Concentration (MIC). As for the experimental part: as §1
For another data set, the system named is Eschelichia coli A13. The data set is described as above. The data set is classed as cell-based. To be noted: read-out: Minimum Inhibitory Concentration (MIC). On the procedure:
as §1

Data set [5] relates to Entercococcus faecalis ATCC 8043. The description is as above. In kind it is cell-based. To be noted: read-out: Minimum Inhibitory Concentration (MIC). On the procedure:
as §1

Where [6] appears, read: Staphylococcus epidermidis, SPAL1, read-out: Minimum Inhibitory Concentration (MIC).
[7] abbreviates: Staphylococcus aureus, K1, read-out: Minimum Inhibitory Concentration (MIC).
The mark [8] stands for this setting: Eschelichia coli NIHJ JC-2, inoculum size: 10^6 cells/ml.
[9] abbreviates: SPAL1, Staphylococcus epidermidis sp-al-1, inoculum size: 10^6 cells/ml, read-out: Minimum Inhibitory Concentration (MIC).
The mark [10] stands for this setting: K1, Staphylococcus aureus K-1, inoculum size: 10^6 cells/ml, read-out: Minimum Inhibitory Concentration (MIC).
Setting [11] is: Staphylococcus aureus 209P-JC, inoculum size: 10^6 cells/ml.
[12] abbreviates: Eschelichia coli A13, inoculum size: 10^6 cells/ml.
Where [13] appears, read: Entercococcus faecalis ATCC 8043, inoculum size: 10^6 cells/ml.

For `N#CCSC1=C(C(=O)[O-])N2C(=O)[C@@H](NC(=O)/C(=N\O)c3csc(N)n3)[C@H]2SC1.[Na+]`, the concentration at 4 h in “in vivo” (Four Hours after administration) worked out at 2500 ng/mL. The compound also showed a concentration at 1 h in “in vivo” (One Hour after administration) of 2500 ng/mL. In addition, the concentration at 2 h in “in vivo” (Two Hours after administration) worked out at 4000 ng/mL. In addition, the MIC in data set [1] was found to be 0.2 µg/mL; in data set [2] (setting [6]), 0.78 µg/mL; in data set [3] (setting [7]) it was 0.78 µg/mL; in data set [4] (Staphylococcus aureus, 209P) it was 0.2 µg/mL; in the data set with Eschelichia coli A13 it was 1.56 µg/mL; in data set [5], 1.56 µg/mL.
In the case of `CC1=C(C(=O)O)N2C(=O)[C@@H](NC(=O)[C@H](N)c3ccccc3)[C@H]2SC1` [D, Cephalexin, reference compound], the MIC in data set [1] is 6.25 µg/mL (≈ 18 µM); in data set [2] (setting [6]), 1.56 µg/mL (≈ 4.49 µM); in data set [3] (setting [7]), more than 100 µg/mL; in data set [4] (Staphylococcus aureus, 209P) it was 0.78 µg/mL (≈ 2.25 µM); with Eschelichia coli A13, more than 100 µg/mL; in data set [5], 100 µg/mL (≈ 288 µM).
Take `Nc1nc(/C(=N/O)C(=O)N[C@@H]2C(=O)N3C(C(=O)O)=C(SCCF)CS[C@H]23)cs1` [B]: the MIC in data set [1] (setting [8]) turned out to be 0.39 µg/mL (≈ 0.872 µM); in data set [2] (setting [9]), 0.78 µg/mL (≈ 1.74 µM); in data set [3] (setting [10]), 0.78 µg/mL (≈ 1.74 µM); in data set [4] (setting [11]) it was 0.39 µg/mL (≈ 0.872 µM); with Eschelichia coli A13 (setting [12]), 6.25 µg/mL (≈ 14 µM); in data set [5] (setting [13]), 25 µg/mL (≈ 55.9 µM).
For the compound `C=CC1=C(C(=O)O)N2C(=O)[C@@H](NC(=O)/C(=N\OCC(=O)O)c3csc(N)n3)[C@H]2SC1` [E, Cefixime sodium salt, reference compound], the MIC in data set [1] was 0.39 µg/mL; in data set [2] (setting [9]), 50 µg/mL; in data set [3] (setting [10]) it was more than 100 µg/mL; in data set [4] (Staphylococcus aureus, 209P) it was 12.5 µg/mL; in the data set with Eschelichia coli A13 (setting [12]), more than 100 µg/mL; in data set [5] (setting [13]), more than 100 µg/mL.
In the case of `C=CCSC1=C(C(=O)O)N2C(=O)[C@@H](NC(=O)/C(=N\O)c3csc(N)n3)[C@H]2SC1` [C], the MIC in data set [1] (setting [8]) is 0.2 µg/mL (≈ 0.453 µM); in data set [2] (setting [9]), 0.39 µg/mL (≈ 0.883 µM); in data set [3] (setting [7]), 6.25 µg/mL (≈ 14.2 µM); in data set [4] (setting [11]), 0.2 µg/mL (≈ 0.453 µM); in the data set on Eschelichia coli A13, 6.25 µg/mL (≈ 14.2 µM); in data set [5], 12.5 µg/mL (≈ 28.3 µM).
